According to ChEMBL document CHEMBL1146677, “Orally active anti-proliferation agents: novel diphenylamine derivatives as FGF-R2 autophosphorylation inhibitors” (Bioorg Med Chem Lett, 2004):
Converted amounts (≈) assume the structure as drawn. The source made the active and inactive calls.

What was measured:
Rattus norvegicus [1] = species: Rattus norvegicus; experiment: Percent remaining after incubation with rat liver microsomes for 10 min; assay type: functional
[2] = molecular target: T1, Fibroblast growth factor receptor 2 (Homo sapiens, UniProt P21802); experiment: In vitro inhibition against autophosphorylation of Fibroblast growth factor receptor 2 in the human scirrhous gastric carcinoma cell line
Target sequence in this assay (P21802 whole entry): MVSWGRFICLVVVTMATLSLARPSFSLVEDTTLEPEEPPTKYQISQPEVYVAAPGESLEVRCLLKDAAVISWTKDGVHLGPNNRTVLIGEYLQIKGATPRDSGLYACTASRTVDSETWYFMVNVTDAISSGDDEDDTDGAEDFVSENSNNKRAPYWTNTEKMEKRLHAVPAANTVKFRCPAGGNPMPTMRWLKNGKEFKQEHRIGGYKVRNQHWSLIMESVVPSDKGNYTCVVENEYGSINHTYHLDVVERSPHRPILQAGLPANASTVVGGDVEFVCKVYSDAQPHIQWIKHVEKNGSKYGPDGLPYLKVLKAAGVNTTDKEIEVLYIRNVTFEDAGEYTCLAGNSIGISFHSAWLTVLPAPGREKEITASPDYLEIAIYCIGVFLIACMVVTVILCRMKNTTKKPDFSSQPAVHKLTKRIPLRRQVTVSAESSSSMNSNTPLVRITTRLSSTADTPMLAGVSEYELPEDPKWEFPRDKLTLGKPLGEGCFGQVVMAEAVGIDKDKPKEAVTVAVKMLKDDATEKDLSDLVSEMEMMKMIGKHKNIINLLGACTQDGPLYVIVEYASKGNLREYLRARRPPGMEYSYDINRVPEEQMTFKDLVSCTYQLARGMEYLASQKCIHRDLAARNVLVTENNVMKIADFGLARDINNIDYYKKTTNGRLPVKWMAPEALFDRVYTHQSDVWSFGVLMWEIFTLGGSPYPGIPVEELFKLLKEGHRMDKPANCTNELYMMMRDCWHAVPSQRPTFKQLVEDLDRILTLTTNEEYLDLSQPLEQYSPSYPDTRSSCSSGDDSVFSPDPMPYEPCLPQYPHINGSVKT

Homo sapiens [3] = species: Homo sapiens; experiment: Percent remaining after incubation with human liver microsomes for 40 min; assay type: functional
Homo sapiens [4] = species: Homo sapiens; experiment: Percent remaining after incubation with human liver microsomes for 10 min; assay type: functional
[5] = molecular target: Platelet-derived growth factor receptor (Homo sapiens, UniProt P09619+P16234); experiment: Inhibition of PDGF-receptor autophosphorylation in intact cells; assay type: cell-based
[6] = molecular target: T2, Insulin-like growth factor 1 receptor (Homo sapiens, UniProt P08069); experiment: Inhibition of IGF-receptor 1 autophosphorylation in intact cells at 10 uM (inactive); assay type: cell-based
[7] = molecular target: T3, Epidermal growth factor receptor (Homo sapiens, UniProt P00533); experiment: Inhibition of EGF-receptor autophosphorylation in intact cells at 10 uM (inactive); assay type: cell-based
[8] = Solubility after at pH 1.2; assay type: physicochemical; details: buffer, read-out: Activity
[9] = molecular target: T4, Hepatocyte growth factor receptor (Homo sapiens, UniProt P08581); experiment: Inhibition of c-Met autophosphorylation of in intact cells; assay type: cell-based
[10] = molecular target: T2, Insulin-like growth factor 1 receptor; experiment: Inhibition of IGF-receptor 1 autophosphorylation in intact cells; assay type: cell-based
Rattus norvegicus [11] = species: Rattus norvegicus; experiment: Percent remaining after incubation with rat liver microsomes for 40 min; assay type: functional
[12] = Solubility after injection of water; assay type: physicochemical; details: read-out: Activity
[13] = molecular target: Vascular endothelial growth factor receptor 2 (Homo sapiens, UniProt P35968); experiment: Inhibition of vascular endothelial growth factor receptor 2 autophosphorylation in intact cells; assay type: cell-based
[14] = molecular target: T4, Hepatocyte growth factor receptor; experiment: Inhibition of c-Met autophosphorylation in intact cells at 10 uM (inactive); assay type: cell-based
[15] = molecular target: Mast/stem cell growth factor receptor Kit (Homo sapiens, UniProt P10721); experiment: Inhibition of c-Kit autophosphorylation in intact cells; assay type: cell-based
[16] = molecular target: T3, Epidermal growth factor receptor; experiment: Inhibition of EGF-receptor autophosphorylation in intact cells; assay type: cell-based
[17] = molecular target: T1, Fibroblast growth factor receptor 2; experiment: Ex vivo inhibition of fibroblast growth factor receptor (FGF-R2) autophosphorylation 5 hr after the oral administration at 100 mg/kg; assay type: functional, organism-based; parameters: dose 100 mg/kg
Target sequence in this assay (P21802 22-821 limits assumed): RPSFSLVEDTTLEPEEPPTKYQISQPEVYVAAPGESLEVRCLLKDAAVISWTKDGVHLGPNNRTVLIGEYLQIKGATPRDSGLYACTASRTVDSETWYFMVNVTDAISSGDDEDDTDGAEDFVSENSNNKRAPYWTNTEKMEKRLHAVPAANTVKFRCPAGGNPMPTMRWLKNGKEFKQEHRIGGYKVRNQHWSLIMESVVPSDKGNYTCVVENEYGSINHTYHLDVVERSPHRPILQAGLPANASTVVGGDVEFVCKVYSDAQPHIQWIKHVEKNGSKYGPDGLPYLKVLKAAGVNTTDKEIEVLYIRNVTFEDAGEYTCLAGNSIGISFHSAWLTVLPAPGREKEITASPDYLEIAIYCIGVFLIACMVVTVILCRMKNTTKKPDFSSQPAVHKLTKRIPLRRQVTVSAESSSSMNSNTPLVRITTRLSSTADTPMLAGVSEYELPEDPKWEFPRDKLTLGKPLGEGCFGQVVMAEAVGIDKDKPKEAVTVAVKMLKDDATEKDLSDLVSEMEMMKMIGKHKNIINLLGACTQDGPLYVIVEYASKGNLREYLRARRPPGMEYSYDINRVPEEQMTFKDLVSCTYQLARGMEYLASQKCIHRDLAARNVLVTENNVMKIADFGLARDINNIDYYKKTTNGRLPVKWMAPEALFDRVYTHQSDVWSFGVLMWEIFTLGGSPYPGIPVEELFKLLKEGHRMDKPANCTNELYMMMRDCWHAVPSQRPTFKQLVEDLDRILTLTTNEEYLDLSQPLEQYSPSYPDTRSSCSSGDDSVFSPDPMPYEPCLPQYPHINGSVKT

[18] = Solubility after at a pH 1.2; assay type: physicochemical; details: buffer, read-out: Activity

T3 sequence (P00533 whole entry): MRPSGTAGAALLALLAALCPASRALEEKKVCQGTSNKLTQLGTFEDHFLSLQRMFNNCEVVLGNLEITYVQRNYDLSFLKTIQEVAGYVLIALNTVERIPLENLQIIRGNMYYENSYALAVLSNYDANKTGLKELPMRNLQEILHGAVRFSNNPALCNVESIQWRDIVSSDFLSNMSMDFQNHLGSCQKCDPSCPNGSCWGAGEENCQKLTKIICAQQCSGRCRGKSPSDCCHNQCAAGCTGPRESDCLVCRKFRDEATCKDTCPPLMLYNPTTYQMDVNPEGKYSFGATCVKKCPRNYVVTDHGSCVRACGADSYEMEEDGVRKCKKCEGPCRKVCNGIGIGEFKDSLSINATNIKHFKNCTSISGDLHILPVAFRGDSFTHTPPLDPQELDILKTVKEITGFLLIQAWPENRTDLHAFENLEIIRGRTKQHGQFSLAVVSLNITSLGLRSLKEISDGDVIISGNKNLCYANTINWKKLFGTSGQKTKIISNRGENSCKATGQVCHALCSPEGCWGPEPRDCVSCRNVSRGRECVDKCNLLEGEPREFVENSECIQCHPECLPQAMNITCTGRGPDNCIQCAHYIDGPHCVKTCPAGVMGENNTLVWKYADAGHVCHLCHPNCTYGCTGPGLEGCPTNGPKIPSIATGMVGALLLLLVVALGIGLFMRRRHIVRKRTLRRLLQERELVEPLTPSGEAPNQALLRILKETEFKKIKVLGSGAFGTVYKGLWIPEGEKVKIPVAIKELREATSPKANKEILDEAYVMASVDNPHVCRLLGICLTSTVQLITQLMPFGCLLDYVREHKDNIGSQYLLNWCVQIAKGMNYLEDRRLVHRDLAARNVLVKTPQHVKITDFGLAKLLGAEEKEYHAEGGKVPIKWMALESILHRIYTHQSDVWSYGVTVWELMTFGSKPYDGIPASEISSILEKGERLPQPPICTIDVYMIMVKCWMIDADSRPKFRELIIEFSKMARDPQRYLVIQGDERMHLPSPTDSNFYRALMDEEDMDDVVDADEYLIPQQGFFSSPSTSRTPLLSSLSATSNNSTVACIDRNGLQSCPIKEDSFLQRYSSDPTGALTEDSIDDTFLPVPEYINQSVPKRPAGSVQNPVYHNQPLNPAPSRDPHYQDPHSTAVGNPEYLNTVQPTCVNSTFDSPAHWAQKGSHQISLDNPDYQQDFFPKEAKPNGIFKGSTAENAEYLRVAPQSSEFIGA
T2 sequence (P08069 31-736 limits assumed): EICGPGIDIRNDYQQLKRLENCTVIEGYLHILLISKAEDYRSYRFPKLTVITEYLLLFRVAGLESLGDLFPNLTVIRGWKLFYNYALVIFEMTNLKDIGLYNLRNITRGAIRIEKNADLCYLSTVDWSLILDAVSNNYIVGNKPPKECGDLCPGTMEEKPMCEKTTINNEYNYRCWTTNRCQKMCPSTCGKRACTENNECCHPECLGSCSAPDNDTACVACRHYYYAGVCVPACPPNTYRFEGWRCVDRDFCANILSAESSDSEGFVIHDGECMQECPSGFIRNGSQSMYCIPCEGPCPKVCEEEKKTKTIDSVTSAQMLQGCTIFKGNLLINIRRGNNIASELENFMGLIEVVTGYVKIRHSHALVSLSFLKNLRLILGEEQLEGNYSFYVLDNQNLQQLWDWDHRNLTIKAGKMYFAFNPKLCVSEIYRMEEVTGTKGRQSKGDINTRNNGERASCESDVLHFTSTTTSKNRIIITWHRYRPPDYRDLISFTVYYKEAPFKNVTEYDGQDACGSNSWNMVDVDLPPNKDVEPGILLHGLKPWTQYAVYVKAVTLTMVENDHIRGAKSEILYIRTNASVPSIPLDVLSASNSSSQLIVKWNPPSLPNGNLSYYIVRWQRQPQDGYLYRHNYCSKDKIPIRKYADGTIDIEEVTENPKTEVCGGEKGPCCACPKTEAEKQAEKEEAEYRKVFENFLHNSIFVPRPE
T2 sequence (P08069 741-1367 limits assumed): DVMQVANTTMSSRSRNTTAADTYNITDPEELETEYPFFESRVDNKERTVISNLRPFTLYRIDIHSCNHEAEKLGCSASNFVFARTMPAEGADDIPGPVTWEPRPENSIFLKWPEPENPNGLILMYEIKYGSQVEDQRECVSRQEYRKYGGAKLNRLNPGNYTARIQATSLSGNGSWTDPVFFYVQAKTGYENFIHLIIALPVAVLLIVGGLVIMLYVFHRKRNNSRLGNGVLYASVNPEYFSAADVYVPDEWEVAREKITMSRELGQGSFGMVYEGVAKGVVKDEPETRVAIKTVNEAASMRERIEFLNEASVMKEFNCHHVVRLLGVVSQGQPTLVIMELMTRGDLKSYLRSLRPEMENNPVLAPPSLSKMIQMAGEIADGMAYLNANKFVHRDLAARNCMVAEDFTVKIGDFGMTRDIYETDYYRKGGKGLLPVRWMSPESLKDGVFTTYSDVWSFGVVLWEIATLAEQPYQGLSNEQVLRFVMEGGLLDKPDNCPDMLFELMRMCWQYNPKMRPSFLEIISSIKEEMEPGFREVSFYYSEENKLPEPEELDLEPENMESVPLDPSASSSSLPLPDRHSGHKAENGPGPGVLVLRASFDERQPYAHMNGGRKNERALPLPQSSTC

SMILES	IC50 [2]	Metabolism (Rattus norvegicus [1])	further results
COc1cc2nccc(Oc3ccc(Nc4cccc(-c5ccccc5)c4)cc3)c2cc1OC	> 10000 nM	–	–
COc1cc2nccc(Oc3ccc(Nc4ccc(C(C)(C)C)cc4)c(C)c3C)c2cc1OC	130 nM	–	–
COc1cc2nccc(Oc3ccc(Nc4ccccc4)cc3)c2cc1OC	8900 nM	–	–
COc1cc2nccc(Oc3ccc(Nc4ccc(C(C)C)cc4)cc3)c2cc1OC	200 nM	–	–
COc1cc2nccc(Oc3ccc(Nc4ccc(C(C)(C)C)cc4)c(C(F)(F)F)c3)c2cc1OC	> 10000 nM	–	–
COc1cc2nccc(Oc3ccc(C(=O)c4ccc(C(C)(C)C)cc4)cc3)c2cc1OC	190 nM	–	inhibition [17]: 3%
COc1cc2nccc(Oc3ccc(Cc4ccc(C(C)(C)C)cc4)cc3)c2cc1OC	> 1000 nM	–	inhibition [17]: 5%
COc1cc2nccc(Oc3ccc(Nc4ccc(C(C)(C)C)cc4)c(C)c3)c2cc1OC	100 nM	–	–
COc1cc2nccc(Oc3ccc(Nc4ccc(C(C)(C)C)cc4)cc3F)c2cc1OC	54 nM	–	–
COc1cc2nccc(Oc3ccc(Oc4ccc(C(C)(C)C)cc4)cc3)c2cc1OC	440 nM	–	–
COc1cc2nccc(Oc3ccc(Nc4ccc(C(C)(C)C)cc4)c(F)c3)c2cc1OC	63 nM	–	–
COc1cc2nccc(Oc3ccc(NC4CCC(C(C)(C)C)CC4)cc3)c2cc1OC (stereo unspecified)	3400 nM	–	–
COc1cc2nccc(Oc3ccc(Nc4ccc(C(C)(C)C)cc4)cc3C)c2cc1OC	> 10000 nM	–	–
COc1ccc(Nc2ccc(Oc3ccnc4cc(OC)c(OC)cc34)cc2)cc1	780 nM	–	–

Further lines, with some results ahead:

IC50 [2]	SMILES	Metabolism (Rattus norvegicus [1])	further results
200 nM	COc1cc2c(Oc3ccc(Nc4ccc(C(C)(C)C)cc4)cc3)ccnc2cc1OCC(O)CN1CCCCC1 (stereo unspecified)	78%	–
70 nM	COc1cc2c(Oc3ccc(Nc4ccc(C(C)(C)C)cc4)cc3F)ccnc2cc1OCCNCCO	60%	–
88 nM	COc1cc2c(Oc3ccc(Nc4ccc(C(C)(C)C)cc4)cc3)ccnc2cc1OCCNCCO	97%	Metabolism (Homo sapiens [3]): 89%; Metabolism (Homo sapiens [4]): 99%; IC50 [5]: 100 nM; Activity [6]: inactive; Activity [7]: inactive; solubility [8]: 802 µg/mL (≈ 1600 µM); IC50 [9]: > 10000 nM; IC50 [10]: > 10000 nM; Metabolism (Rattus norvegicus [11]): 78%; solubility [12]: 108 µg/mL (≈ 215 µM); IC50 [13]: 83 nM; Activity [14]: inactive; IC50 [15]: 480 nM; IC50 [16]: > 10000 nM
260 nM	COc1cc2c(Oc3ccc(Nc4ccc(C(C)(C)C)cc4)c(F)c3)ccnc2cc1OCCNCCO	92%	–
71 nM	COc1cc2c(Oc3ccc(Nc4ccc(C(C)(C)C)cc4)cc3)ccnc2cc1OCCN(CCO)CCO	46%	–
40 nM	COc1cc2nccc(Oc3ccc(Nc4ccc(C(C)(C)C)cc4)cc3)c2cc1OC	–	solubility [18]: 3 µg/mL (≈ 7 µM); inhibition [17]: 70%
350 nM	COc1cc2c(Oc3ccc(Nc4ccc(C(C)(C)C)cc4)cc3)ccnc2cc1OCCCN1CCCCC1	28%	–
71 nM	COc1cc2c(Oc3ccc(Nc4ccc(C(C)(C)C)cc4)cc3)ccnc2cc1OCC(O)CN1CCOCC1 (stereo unspecified)	72%	–
23 nM	COc1cc2c(Oc3ccc(Nc4ccc(C(C)(C)C)cc4)cc3)ccnc2cc1OCCN1CCC(CO)CC1	51%	–
200 nM	COc1cc2c(Oc3ccc(Nc4ccc(C(C)(C)C)cc4)cc3)ccnc2cc1OCCN1CCOCC1	9%	–
